In patent publication US9932376B2, “Analogues of temporin-SHa and uses thereof” (UNIVERSITE PIERRE ET MARIE CURIE (PARIS 6), priority 2013, dated 2018):
Entries after “also recorded” stand apart in the source; their conditions may differ. Ends that are not written are not given here.

Key:
[1] = tested on: Leishmania infantum promastigotes (strain MHOM/MA/67/ITMAP-263); test: Tests of anti-leishmanial activity on promastigotes expressing the luciferase; assay type: cell-based; details: result in words
Procedure: Leishmanicidal activity of peptides was evaluated on the promastigote form of Leishmania infantum (strain MHOM/MA/67/ITMAP-263), responsible for visceral leishmaniosis.
Promastigotes were maintained at 26° C. by one or two weekly passages, depending on the number of parasites in the inoculum, in SDM 79 medium supplemented with 10 to 20% decomplemented fetal calf serum and […] porcine hemin and in the presence of 100 U/mL penicillin and 100 μg/mL streptomycin (Brun et al., 1979). Starting from an inoculum of 10^5 cells/mL in logarithmic growth phase, the promastigotes reached a cell density of 1 to 2×10^8 parasites/mL in stationary phase after 5 days of culture in 25 cm^2 culture flasks. Cell densities were determined by flow cytometry in the presence of propidium iodide on a FAC Scan cytometer (Excalibur, Becton Dickinson, Ivry, France).
The tests of anti-leishmanial activity were carried out with a parasite line expressing the luciferase. […]
After 72 hrs of incubation at 26° C., 50 μL of Steady-Glo lysis buffer (Promega) were added to each well. […] Emitted luminescence was measured with a luminescence plate reader (Victor, PerkinElmer). […] The percentage growth was calculated according to the following formula: % growth=[(L mean−bgd)peptide×100]/(L mean−bgd)negative control
where L mean: mean luminescence and bgd: background corresponding to the luminescence emitted by the culture medium. […]

[2] = Hemolytic test; assay type: cell-based, rat; details: rat erythrocytes (washed red blood cells), pH 7.4, rat erythrocytes, 1 hr at 37° C.; for CC50 at 1 hr: read-out: LC50 (hemolytic activity), unit inferred
Procedure: (§1) The hemolytic activity of the antimicrobial peptides was assessed using rat erythrocytes. Red blood cell hemolysis is manifested by the release into the reaction medium of hemoglobin, the concentration of which is determined spectrophotometrically at 450 nm.
(§2) Red blood cells were separated from plasma and white blood cells by centrifugation of blood (900×g, 10 min). The pellet containing red blood cells was washed three times with PBS buffer, pH 7.4. After counting on a Malassez cell, a stock solution of 4×10^8 red blood cells/mL was prepared in the same buffer. A series of concentrations of the peptides to be tested was prepared (2 to 400 μM).
(§3) The test was carried out as follows: 50 μL of the different peptide concentrations were added to 50 μL of the red blood cell suspension. After 1 hr of incubation at 37° C. followed by centrifugation (12,000×g, 15 sec), absorbance of the supernatant was measured at 450 nm. The negative control for this test (0% hemolysis) contained […] in place of the peptide solution. The positive control (100% hemolysis) contained 50 μL of 0.1% Triton X-100 in place of the peptide solution.
(§4) The LC50 value obtained is the mean of three experiments carried out in triplicate and corresponds to the peptide concentration inducing hemolysis of 50% of the cells.

[3] = tested on: rat erythrocytes; test: Hemolytic test; assay type: cell-based; details: for hemolytic activity (in words): rat erythrocytes, result in words
Procedure: as §1, §2, §3, §4

[4] = tested on: yeasts; test: Tests of antifungal activity (growth inhibition in YPD broth medium, MIC); assay type: cell-based
Procedure: Three yeast strains were used: Saccharomyces cerevisiae, Candida albicans (ATCC 90028), Candida parapsilosis (ATCC 22019). These strains were first grown on YPD agar for a minimum of 48 hrs. Yeast suspensions were then prepared, exactly as for bacteria, and adjusted to 10^6 cfu/mL in YPD broth medium.
The antifungal activity test corresponds to the growth inhibition test in broth medium used for the bacteria (see above) in which MH medium was replaced by YPD medium. Fungal strains were incubated at 30° C.

[5] = tested on: Gram-positive and Gram-negative bacterial strains; assay type: cell-based
Excerpt: The following strains were used for the antibacterial activity tests: Escherichia coli (ATCC 25922 and ML-35p), Staphylococcus aureus (ATCC 25923 and ST1065), Enterococcus faecalis (ATCC 29212), Pseudomonas aeruginosa (ATCC 27853), Streptococcus pyogenes (ATCC 19615), Listeria ivanovii, Salmonella enterica (serotype Enteritidis), Acinetobacter baumannii (ATCC 19606) and Klebsiella pneumoniae (ATCC 13883). Two antibiotic-resistant strains were also used (S. aureus ATCC 43300 and ATCC BAA-44).
For each strain, a standard inoculum of approximately 10^6 bacteria/mL (exponential growth phase) was prepared. To this end, a colony isolated on LB agar previously inoculated with one of the strains was cultured in 4 mL of LB broth medium, except for S. pyogenes and L. ivanovii, which were grown in BHI (Brain Heart Infusion) from a colony isolated on BHI agar. Liquid cultures were then incubated for 2 to 3 hrs at 37° C. with shaking for the bacteria to reach exponential growth phase. […]
The minimum inhibitory concentration (MIC) of each peptide was determined by a test of growth inhibition in broth medium. […] Bacterial growth was determined by measuring OD at 630 nm (turbidity) on a plate reader. […]

[6] = tested on: THP-1 monocyte-derived macrophages; test: Cytotoxicity test on THP-1 human monocytes-derived macrophages; assay type: cell-based; details: result in words
Procedure: The viability of macrophages was ascertained using a trypan blue-based microassay. THP-1 cells from a culture suspension in mid-log phase of growth were plated at a density of 5×10^5 cells/mL in 96-well plates (100 μL/well, i.e., 5×10^4 cells/well) and differentiated as described above. After incubation for 72 hrs at 37° C. with 5% CO2, in the presence of peptide (60 μM to 7.5 μM, final concentrations), adherent macrophages were washed once with prewarmed RPMI 1640 medium and stained for 5 min, with 100 μL of trypan blue 2-fold diluted in RPMI 1640 medium. Wells were then washed twice with 100 μL of RPMI 1640 medium. Living white cells were microscopically counted in three focuses per well using a reticulated ocular.
The viability index (VI) was calculated for each peptide concentration using the following formula: VI=[N meanpeptide×100]/N meannegative control.
where N mean is the mean number of viable parasites. The negative control (100% growth) contained 20 μL of RPMI medium in place of the peptide solution.
The LC50 value, which corresponds to the peptide concentration inducing lysis of 50% of the cells, was determined from the viability indexes. Tests were carried out in sextuplicate for each peptide concentration and at least two independent experiments were performed to determine the LC50 value.

[7] = tested on: Leishmania infantum promastigote; details: read-out: IC50 against the promastigote form; cited from earlier work
[8] = tested on: Leishmania infantum axenic amastigote; details: read-out: IC50 against the axenic amastigote form; cited from earlier work

| Substance | CC50 at 1 hr [2] [µM] | hemolytic activity (in words) [3] | further results |
| --- | --- | --- | --- |
| F-L-K-G-I-K-G-M-L-G-K-L-L (FLKGIKGMLGKLL-NH2) [[K^3, K^6, L^13]temporin-SHa] | – | – | anti-leishmanial activity on L. infantum promastigotes (in words) [1]: approaches the cytotoxicity level of monocytes |
| FLKGIKGMLGKLF-NH2 [[K^3,K^6]temporin-SHa, F-L-K-G-I-K-G-M-L-G-K-L-F] | > 500 | no hemolytic activity | – |
| FLKGIVGKLGKLF-NH2 [[K^3,K^8]temporin-SHa, F-L-K-G-I-V-G-K-L-G-K-L-F] | > 500 | no hemolytic activity | – |
| FLKGIVGKLGKLL-NH2 [[K^3, K^8,L^13]temporin-SHa, F-L-K-G-I-V-G-K-L-G-K-L-L] | > 500 | no hemolytic activity | – |
| FLKGIVGMLGKLF-NH2 [[K^3]temporin-SHa] | – | – | MIC [4]: 3 to 6 µM; MIC ([5]; Gram-positive (including antibiotic-resistant S. aureus strains) and Gram-negative bacterial strains of clinical interest): 3 to 6 µM; antimicrobial activity (in words) ([5]; bacteria and yeasts tested, result in words): more potent |
| FLKGIVGMLGKLL-NH2 [[K^3,L^13]temporin-SHa, F-L-K-G-I-V-G-M-L-G-K-L-L] | – | lower hemolytic activity; also recorded: lesser haemolytic | cytotoxicity against the host cell (macrophage) (in words) [6]: reduced cytotoxicity; fold lower hemolytic activity than [K^3]temporin-SHa ([3]; relative to [K^3]temporin-SHa): 2 fold |
| FLKGIVGMLGKLW-NH2 [[K^3,W^13]temporin-SHa, F-L-K-G-I-V-G-M-L-G-K-L-W] | – | lower hemolytic activity; also recorded: lesser haemolytic | – |
| FLSGIVGMLGKLF [temporin-SHa, F-L-S-G-I-V-G-M-L-G-K-L-F] | – | – | IC50 [7]: 18.1 µM; IC50 [8]: 22.8 µM |
| KGIVGMLGKLF-NH2 [[K^3]temporin-SHa(3-13)] | – | devoid of hemolytic activity | HC50 at 1 hr ([2]; read-out: LC50 (hemolytic activity)): 618 µM |
